Results as given in patent US10533010B2, “Substituted indole Mcl-1 inhibitors” (Vanderbilt University, priority 2014, dated 2020).

Target: recombinant Mcl-1 (residues 172-327) (Homo sapiens (Human), UniProt Q07820)
Experiment: Fluorescence polarization anisotropy competition assay (FITC-Bak or FITC-Bim BH3 peptide) with Mcl-1
Type: binding
Details: not given

Sequence of recombinant Mcl-1 (residues 172-327) (Q07820 172-327): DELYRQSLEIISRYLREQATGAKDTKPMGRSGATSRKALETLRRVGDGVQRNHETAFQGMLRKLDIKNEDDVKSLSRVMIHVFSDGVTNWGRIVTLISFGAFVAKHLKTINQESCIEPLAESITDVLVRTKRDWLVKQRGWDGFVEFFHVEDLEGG

Row | Compound | Ki
1 | Cc1cc(OCCCc2c(C(=O)NCc3ccc(C(=O)O)o3)[nH]c3ccccc23)cc(C)c1Cl [I-57, 5-((3-(3-(4-chloro-3,5-dimethylphenoxy)propyl)-1H-indole-2-carboxamido)methyl)furan-2-carboxylic acid] | 51 to 100 nM

Same assay, conditions: Table 2; Ki bins given in nM; FITC-Bak or FITC-Bim peptide competition; Ki converted from IC50; read-out: Ki for Inhibition of Mcl-1

Row | Compound | Ki
2 | Cc1cc(OCCCc2c(C(=O)Nc3ccc(C#N)cc3)[nH]c3c(-c4c(C)nn(C)c4C)c(Cl)ccc23)cc(C)c1Cl [I-355, 6-chloro-3-(3-(4-chloro-3,5-dimethylphenoxy)propyl)-N-(4-cyanophenyl)-7-(1,3,5-trimethyl-1H-pyrazol-4-yl)-1H-indole-2-carboxamide] | 51 to 100 nM
3 | Cc1cc(OCCCc2c(C(=O)NCc3cccc(C(=O)O)c3)n(C)c3c(-c4c(C)nn(C)c4C)cccc23)cc(C)c1Cl [I-33, 3-((3-(3-(4-chloro-3,5-dimethylphenoxy)propyl)-1-methyl-7-(1,3,5-trimethyl-1H-pyrazol-4-yl)-1H-indole-2-carboxamido)methyl)benzoic acid] | 51 to 100 nM
4 | Cc1cc(OCCCc2c(C(=O)NCCC(=O)NS(=O)(=O)c3ccc([N+](=O)[O-])cc3)[nH]c3c(-c4c(C)n[nH]c4C)cccc23)cc(C)c1Cl [I-24, 3-(3-(4-chloro-3,5-dimethylphenoxy)propyl)-7-(3,5-dimethyl-1H-pyrazol-4-yl)-N-(3-((4-nitrophenyl)sulfonamido)-3-oxopropyl)-1H-indole-2-carboxamide] | 101 to 299 nM
5 | Cc1cc(OCCCc2c(C(=O)N[C@@H]3CCCN(C(=O)C(=O)O)C3)[nH]c3c(-c4c(C)nn(C)c4C)c(Cl)ccc23)cc(C)c1Cl [I-327, (R)-2-(3-(6-chloro-3-(3-(4-chloro-3,5-dimethylphenoxy)propyl)-7-(1,3,5-trimethyl-1H-pyrazol-4-yl)-1H-indole-2-carboxamido)piperidin-1-yl)-2-oxoacetic acid] | < 50 nM
6 | Cc1cc(OCCCc2c3n(c4c(-c5c(C)nn(C)c5C)c(Cl)ccc24)CCCN(c2cccc(C#N)c2)C3=O)cc(C)c1Cl [I-353, 3-(8-chloro-11-(3-(4-chloro-3,5-dimethylphenoxy)propyl)-1-oxo-7-(1,3,5-trimethyl-1H-pyrazol-4-yl)-4,5-dihydro-1H-[1,4]diazepino[1,2-a]indol-2(3H)-yl)benzonitrile] | 51 to 100 nM
7 | Cc1cc(OCCCc2c(C(=O)NCCC(=O)NS(=O)(=O)c3ccc4ccccc4c3)[nH]c3ccccc23)cc(C)c1Cl [I-16, 3-(3-(4-chloro-3,5-dimethylphenoxy)propyl)-N-(3-(naphthalene-2-sulfonamido)-3-oxopropyl)-1H-indole-2-carboxamide] | 101 to 299 nM
8 | Cc1cc(OCCCc2c(C(=O)N3CCN(c4ccc(C(=O)O)cc4)CC3)n(Cc3ccccc3)c3c(-c4c(C)nn(C)c4C)c(Cl)ccc23)cc(C)c1Cl [I-342, 4-(4-(1-benzyl-6-chloro-3-(3-(4-chloro-3,5-dimethylphenoxy)propyl)-7-(1,3,5-trimethyl-1H-pyrazol-4-yl)-1H-indole-2-carbonyl)piperazin-1-yl)benzoic acid] | 51 to 100 nM
9 | Cc1cc(OCCCc2c3n(c4c(-c5c(C)nn(C)c5C)c(Cl)ccc24)CCC(C)NC3=O)cc(C)c1Cl (stereo not shown) [I-114, 8-chloro-1-(3-(4-chloro-3,5-dimethylphenoxy)propyl)-3-methyl-7-(1,3,5-trimethyl-1H-pyrazol-4-yl)-2,3,4,5-tetrahydro-1H-[1,4]diazepino[1,2-a]indol-1-one] | < 50 nM

Further lines, results first:

Row | Ki | Compound
10 | < 50 nM | Cc1cc(OCCCc2c3n(c4c(-c5c(C)nn(C)c5C)c(Cl)ccc24)CCCN(c2cc(C(=O)O)c4ccn(Cc5cccnc5)c4c2)C3=O)cc(C)c1Cl [I-241, 6-(8-chloro-11-(3-(4-chloro-3,5-dimethylphenoxy)propyl)-1-oxo-7-(1,3,5-trimethyl-1H-pyrazol-4-yl)-4,5-dihydro-1H-[1,4]diazepino[1,2-a]indol-2(3H)-yl)-1-(pyridin-3-ylmethyl)-1H-indole-4-carboxylic acid]
11 | < 50 nM | Cc1cc(OCCCc2c(C(=O)N3CC(NC(=O)C(=O)O)C3)[nH]c3c(-c4c(C)nn(C)c4C)c(Cl)ccc23)cc(C)c1Cl [I-323, 2-((1-(6-chloro-3-(3-(4-chloro-3,5-dimethylphenoxy)propyl)-7-(1,3,5-trimethyl-1H-pyrazol-4-yl)-1H-indole-2-carbonyl)azetidin-3-yl)amino)-2-oxoacetic acid]
12 | < 50 nM | Cc1cc(OCCCc2c(C(=O)N3CCN(c4ccc(C(=O)O)cc4)CC3)n(Cc3cccnc3)c3c(-c4c(C)nn(C)c4C)c(Cl)ccc23)cc(C)c1Cl [I-338, 4-(4-(6-chloro-3-(3-(4-chloro-3,5-dimethylphenoxy)propyl)-1-(pyridin-3-ylmethyl)-7-(1,3,5-trimethyl-1H-pyrazol-4-yl)-1H-indole-2-carbonyl)piperazin-1-yl)benzoic acid]
13 | < 50 nM | Cc1cc(OCCCc2c3n(c4c(-c5c(C)nn(C)c5C)c(Cl)ccc24)CCN(Cc2ccc(C(=O)O)o2)C3=O)cc(C)c1Cl [I-143, 5-((7-chloro-10-(3-(4-chloro-3,5-dimethylphenoxy)propyl)-1-oxo-6-(1,3,5-trimethyl-1H-pyrazol-4-yl)-3,4-dihydropyrazino[1,2-a]indol-2(1H)-yl)methyl)furan-2-carboxylic acid]
14 | < 50 nM | Cc1cc(OCCCc2c(C(=O)NCc3cccc(C(=O)O)c3)n(CCN3CCOCC3)c3c(-c4c(C)nn(C)c4C)c(Cl)ccc23)cc(C)c1Cl [I-372, 3-((6-chloro-3-(3-(4-chloro-3,5-dimethylphenoxy)propyl)-1-(2-morpholinoethyl)-7-(1,3,5-trimethyl-1H-pyrazol-4-yl)-1H-indole-2-carboxamido)methyl)benzoic acid]
15 | < 50 nM | Cc1cc(OCCCc2c3n(c4c(-c5c(C)nn(C)c5C)c(Cl)ccc24)CCCN(c2ccc4ccn(C)c4c2)C3=O)cc(C)c1Cl [I-248, 8-chloro-1-(3-(4-chloro-3,5-dimethylphenoxy)propyl)-2-(1-methyl-1H-indol-6-yl)-7-(1,3,5-trimethyl-1H-pyrazol-4-yl)-2,3,4,5-tetrahydro-1H-[1,4]diazepino[1,2-a]indol-1-one]
16 | < 50 nM | Cc1cc(OCCCc2c3n(c4c(-c5c(C)nn(C)c5C)c(Cl)ccc24)CCCN(c2cc(C(=O)O)cc(N4CCN(C)CC4)c2)C3=O)cc(C)c1Cl [I-219, 3-(8-chloro-11-(3-(4-chloro-3,5-dimethylphenoxy)propyl)-1-oxo-7-(1,3,5-trimethyl-1H-pyrazol-4-yl)-4,5-dihydro-1H-[1,4]diazepino[1,2-a]indol-2(3H)-yl)-5-(4-methylpiperazin-1-yl)benzoic acid]
17 | < 50 nM | Cc1cc(OCCCc2c(C(=O)Nc3cc(Br)cc(C(=O)O)c3)[nH]c3c(-c4c(C)nn(C)c4C)c(Cl)ccc23)cc(C)c1Cl [I-217, 3-bromo-5-(6-chloro-3-(3-(4-chloro-3,5-dimethylphenoxy)propyl)-7-(1,3,5-trimethyl-1H-pyrazol-4-yl)-1H-indole-2-carboxamido)benzoic acid]

Same assay, conditions: Table 2; Ki bins given in μM; FITC-Bak or FITC-Bim peptide competition; Ki converted from IC50; read-out: Ki for Inhibition of Mcl-1

Row | Compound | Ki
18 | Cc1cc(OCCCc2c(C(=O)NCCc3ccccc3)[nH]c3ccccc23)cc(C)c1Cl [I-42, 3-(3-(4-chloro-3,5-dimethylphenoxy)propyl)-N-phenethyl-1H-indole-2-carboxamide] | 10000 to 50000 nM
19 | CCOC(=O)c1ccc(CNC(=O)c2[nH]c3ccccc3c2CCCOc2cc(C)c(Cl)c(C)c2)o1 [I-56, ethyl 5-((3-(3-(4-chloro-3,5-dimethylphenoxy)propyl)-1H-indole-2-carboxamido)methyl)furan-2-carboxylate] | 1000 to 9990 nM
